Assay results published in article PMC7663003 (2020).

How the values were obtained:
Test in all cases: fluorescence titration
[1] = tested on: 26Tel (DNA, G4) TTAGGGTTAGGGTTAGGGTTAGGGTT; conditions: 2.5 mM Mg2+, 3 μM dye, apparent
[2] = tested on: 22Kit (DNA, G4) AGGGAGGGCGCTGGGAGGAGGG; conditions: 140 mM K+, 10 mM Na+, 2.5 mM Mg2+; PBS140KM (phosphate) pH 7.4, 25 °C; 3 μM dye; apparent
[3] = tested on: 22AG (DNA, G4) AGGGTTAGGGTTAGGGTTAGGG; conditions: 2.5 mM Mg2+, pH 7.4, 25 °C, dye 3 μM, apparent
[4] = tested on: 26Tel (DNA, G4) TTAGGGTTAGGGTTAGGGTTAGGGTT; conditions: 153 mM Na+, 2.7 mM K+, 2.5 mM Mg2+, pH 7.4, 25 °C, dye 3 μM, apparent
[5] = tested on: 27Myc (DNA, G4) TGGGGAGGGTGGGGAGGGTGGGGAAGG; conditions: 153 mM Na+, 2.7 mM K+, 2.5 mM Mg2+, pH 7.4, 25 °C, dye 3 μM, apparent
[6] = tested on: 22Kit (DNA, G4) AGGGAGGGCGCTGGGAGGAGGG; conditions: 153 mM Na+, 2.7 mM K+, 2.5 mM Mg2+, pH 7.4, 25 °C, dye 3 μM, apparent
[7] = tested on: 20Src (DNA, G4) GGGCGGCGGGCTGGGCGGGG; conditions: 2.5 mM Mg2+, pH 7.4, 25 °C, dye 3 μM, oligonucleotide to 15 μM, apparent, n.d., assumed
[8] = tested on: 18Ras (RNA, G4) GGGAGGGGCGGGUCUGGG; conditions: 2.5 mM Mg2+, pH 7.4, 25 °C, dye 3 μM, apparent
[9] = tested on: dsDNA (DNA, duplex) GGGTTACTACGAACTGG/CCAGTTCGTAGTAACCC; conditions: 153 mM Na+, 2.7 mM K+, 2.5 mM Mg2+, pH 7.4, 25 °C, dye 3 μM, apparent
[10] = tested on: 22AG (DNA, G4) AGGGTTAGGGTTAGGGTTAGGG; conditions: 2.5 mM Mg2+, 3 μM dye, apparent
[11] = tested on: 27Myc (DNA, G4) TGGGGAGGGTGGGGAGGGTGGGGAAGG; conditions: 140 mM K+, 10 mM Na+, 2.5 mM Mg2+; PBS140KM (phosphate) pH 7.4, 25 °C; 3 μM dye; apparent
[12] = tested on: 18Ras (RNA, G4) GGGAGGGGCGGGUCUGGG; conditions: 140 mM K+, 10 mM Na+, 2.5 mM Mg2+; PBS140KM (phosphate) pH 7.4, 25 °C; 3 μM dye; apparent
[13] = tested on: 20Src (DNA, G4) GGGCGGCGGGCTGGGCGGGG; conditions: 2.5 mM Mg2+, 3 μM dye, apparent
[14] = tested on: dsDNA (DNA, duplex) GGGTTACTACGAACTGG/CCAGTTCGTAGTAACCC; conditions: 140 mM K+, 10 mM Na+, 2.5 mM Mg2+; PBS140KM (phosphate) pH 7.4, 25 °C; 3 μM dye; apparent
[15] = 140 mM K+, 10 mM Na+, PBS140KM (phosphate) pH 7.4, 25 °C
[16] = 140 mM K+, 10 mM Na+, PBS140KM, oligonucleotide to 15 μM, n.d., assumed
[17] = 153 mM Na+, 2.7 mM K+, PBS153NM (phosphate)
[18] = PBS153NM, oligonucleotide to 15 μM, n.d., assumed
[19] = 153 mM Na+, 2.7 mM K+, PBS153NM
[20] = 153 mM Na+, 2.7 mM K+, PBS153NM, oligonucleotide to 15 μM, n.d., assumed
[21] = 153 mM Na+, 2.7 mM K+, PBS153NM (phosphate) pH 7.4, 25 °C

Kd [1, 15] [µM] | Kd [2] [µM] | Kd [3, 16] [µM] | Kd [3, 17] [µM] | Kd [4, 18] [µM] | Kd [6, 18] [µM] | Kd ([7]; 140 mM K+, 10 mM Na+, PBS140KM) [µM] | Kd [7, 19] [µM] | Kd [9, 18] [µM] | Kd [10, 15] [µM] | Kd [11] [µM] | Kd [12] [µM] | Kd [3, 20] [µM] | Kd ([5]; PBS153NM (phosphate)) [µM] | Kd ([6]; PBS153NM (phosphate)) [µM] | Kd [8, 17] [µM] | Kd ([4]; PBS153NM (phosphate)) [µM] | Kd [13, 15] [µM] | SMILES | other results
5.3 ± 0.4 | 20.5 ± 1.4 | – | – | – | > 40 | – | > 40 | > 40 | 11.8 ± 1.4 | 8.7 ± 0.7 | 11.8 ± 0.6 | > 40 | 10.8 ± 1.3 | – | 15.5 ± 1.7 | 34.3 ± 4.0 | 38.6 ± 5.9 | Cc1ccc2c(c1)sc(-c1ccc(N(C)C)cc1)[n+]2CCNC(=O)COCCOCCN | –
2.4 ± 0.4 | 6.8 ± 0.6 | – | – | – | – | – | – | – | 5.4 ± 1.0 | 6.8 ± 0.9 | 12.8 ± 1.9 | – | 5.3 ± 0.8 | 7.4 ± 3.9 | 14.7 ± 3.2 | – | 18.8 ± 2.4 | Cc1ccc2c(c1)sc(-c1ccc(N(C)C)cc1)[n+]2CCNC(=O)NCCCNCCCCNCCCN | Kd [10, 21]: 8.2 ± 0.8 µM; Kd [1, 21]: 4.6 ± 0.3 µM; Kd [13, 21]: 4.1 ± 0.5 µM; Kd [14]: 16.0 ± 1.0 µM; Kd ([9]; PBS153NM (phosphate)): 9.4 ± 1.0 µM
23.9 ± 3.1 | 36.6 ± 4.4 | > 40 | 20.3 ± 9.9 | > 40 | > 40 | – | > 40 | > 40 | – | 13.4 ± 0.8 | 15.3 ± 1.9 | – | 29.1 ± 2.5 | – | 16.3 ± 1.8 | – | 20.2 ± 2.3 | Cc1ccc2c(c1)sc(-c1ccc(N(C)C)cc1)[n+]2CCNC(=O)COCC(=O)NCCOCCOCCOCCOCCOCCOCCOCCOCCOCCOCCOCCN | –

The remaining lines, values behind:

SMILES | Kd [1, 15] [µM] | Kd [2] [µM] | Kd [3, 16] [µM] | Kd [3, 17] [µM] | Kd [4, 18] [µM] | Kd [6, 18] [µM] | Kd ([7]; 140 mM K+, 10 mM Na+, PBS140KM) [µM] | Kd [7, 19] [µM] | Kd [9, 18] [µM] | Kd [10, 15] [µM] | Kd [11] [µM] | Kd [12] [µM] | Kd [3, 20] [µM] | Kd ([5]; PBS153NM (phosphate)) [µM] | Kd ([6]; PBS153NM (phosphate)) [µM] | Kd [8, 17] [µM] | Kd ([4]; PBS153NM (phosphate)) [µM] | Kd [13, 15] [µM] | other results
Cc1ccc2c(c1)sc(-c1ccc(N(C)C)cc1)[n+]2CCN | 9.7 ± 5.5 | 8.9 ± 3.5 | > 40 | 23.6 ± 9.1 | > 40 | > 40 | > 40 | > 40 | > 40 | – | – | – | – | – | – | – | – | – | Kd [5, 18]: > 40 µM; Kd [8, 16]: > 40 µM; Kd [8, 20]: > 40 µM
Cc1ccc2c(c1)sc(-c1ccc(N(C)C)cc1)[n+]2CCO | 11.1 ± 1.5 | 34.9 ± 6.6 | – | – | > 40 | – | > 40 | > 40 | > 40 | 20.1 ± 1.5 | 19.9 ± 0.9 | 25.0 ± 3.1 | > 40 | 14.1 ± 1.5 | 12.3 ± 1.8 | 28.1 ± 4.0 | – | – | –
Cc1ccc2c(c1)sc(-c1ccc(N(C)C)cc1)[n+]2C | 4.0 ± 0.4 | 9.9 ± 1.2 | – | – | – | – | > 40 | > 40 | > 40 | 5.0 ± 0.5 | 6.9 ± 0.8 | 19.0 ± 2.9 | – | 13.5 ± 5.1 | 4.8 ± 0.8 | 15.3 ± 1.6 | 29.5 ± 5.6 | – | –
